Reference: US8871681B2, “Herbicidal compositions comprising 4-amino-3-chloro-5-fluoro-6-(4-chloro-2-fluoro-3-methoxyphenyl) pyridine-2-carboxylic acid or a derivative thereof and certain sulfonylureas” (Dow AgroSciences LLC, priority 2012, dated 2014)

Columns and labels:
[1] = system: ECHOR (Echinochloa oryzoides, early watergrass); assay: In-water applied weed control, transplanted paddy rice, greenhouse (Example II); assay type: in vivo, Echinochloa oryzoides (Ard.) Fritsch
In short: (§1)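 Transplanted rice and weeds at first to fourth true leaf stage in flooded mud pots (2.5–3 cm water), greenhouse ~29/26 °C day/night. Herbicides alone or mixed, in 1.25% crop oil concentrate (acetone for technical material), injected into the flood; visual 0–100% injury after ~3 weeks, expected mixture effects by Colby.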

[2] = system: LEFCH (Leptochloa chinensis, Chinese sprangletop); assay: as above; assay type: in vivo, Leptochloa chinensis (L.) Nees
In short: as §1

For `COC(=O)c1ccccc1S(=O)(=O)NC(=O)Nc1nc(C)nc(OC)n1` [Metsulfuron-methyl, methyl 2-[[[[(4-methoxy-6-methyl-1,3,5-triazin-2-yl)amino]carbonyl]amino]sulfonyl]benzoate, reference compound], which “Visual Weed Control (%) - 21 DAA ECHOR Obs” value ([1]; Table 41, 7.5 gai/ha alone) is on record?
Its value is 50%.

And the “Visual Weed Control (%) - 21 DAA ECHOR Obs” value ([1]; Table 41, 15 gai/ha alone)?
The value was 65%.

And the “Visual Weed Control (%) - 21 DAA ECHOR Obs” value ([1]; Table 42, 7.5 gai/ha alone)?
Its value is 50%.

And the “Visual Weed Control (%) - 21 DAA ECHOR Obs” value ([1]; Table 42, 15 gai/ha alone)?
Its value is 65%.

How did the “Visual Weed Control (%) - 20 DAA ECHOR Obs” value ([1]; Table 28, 8.75 gae/ha alone) turn out when `COc1c(Cl)ccc(-c2nc(C(=O)O)c(Cl)c(N)c2F)c1F` [Compound A Acid, 4-amino-3-chloro-5-fluoro-6-(4-chloro-2-fluoro-3-methoxy-phenyl)pyridine-2-carboxylic acid] was run?
Its value is 20%.

What about the “Visual Weed Control (%) - 20 DAA ECHOR Obs” value ([1]; Table 28, 17.5 gae/ha alone) of the same compound?
The value was 30%.

What about the “Visual Weed Control (%) - 20 DAA ECHOR Obs” value ([1]; Table 28, 35 gae/ha alone) of the same compound?
The value was 40%.

What about the “Visual Weed Control (%) - 20 DAA ECHOR Obs” value ([1]; Table 28, second set, 35 gae/ha alone) of the same compound?
Its value is 25%.

And the “Visual Weed Control (%) - 20 DAA ECHOR Obs” value ([1]; Table 28, second set, 70 gae/ha alone)?
The value was 35%.

What about the “Visual Weed Control (%) - 25 DAA ECHOR Obs” value ([1]; Table 31, 8.75 gae/ha alone) of the same compound?
The value was 0%.

And the “Visual Weed Control (%) - 25 DAA ECHOR Obs” value ([1]; Table 31, 17.5 gae/ha alone)?
The value was 0%.

What about the “Visual Weed Control (%) - 25 DAA ECHOR Obs” value ([1]; Table 31, 35 gae/ha alone) of the same compound?
The value was 40%.

What about the “Visual Weed Control (%) - 19 DAA ECHOR Obs” value ([1]; Table 31, 42 gae/ha alone) of the same compound?
Its value is 15%.

What about the “Visual Weed Control (%) - 22 DAA ECHOR Obs” value ([1]; Table 34, 10.6 gae/ha alone) of the same compound?
Its value is 15%.

And the “Visual Weed Control (%) - 22 DAA ECHOR Obs” value ([1]; Table 34, 21.2 gae/ha alone)?
Its value is 30%.

What about the “Visual Weed Control (%) - 22 DAA ECHOR Obs” value ([1]; Table 34, 42.4 gae/ha alone) of the same compound?
The value was 40%.

What about the “Visual Weed Control (%) - 21 DAA ECHOR Obs” value ([1]; Table 36, 8.75 gae/ha alone) of the same compound?
Its value is 10%.

What about the “Visual Weed Control (%) - 21 DAA ECHOR Obs” value ([1]; Table 36, 17.5 gae/ha alone) of the same compound?
Its value is 10%.

What about the “Visual Weed Control (%) - 21 DAA ECHOR Obs” value ([1]; Table 36, 35 gae/ha alone) of the same compound?
The value was 15%.

And the “Visual Weed Control (%) - 21 DAA ECHOR Obs” value ([1]; Table 41, 10.6 gae/ha alone)?
The value was 0%.

And the “Visual Weed Control (%) - 21 DAA ECHOR Obs” value ([1]; Table 41, 21.2 gae/ha alone)?
Its value is 15%.

What about the “Visual Weed Control (%) - 21 DAA ECHOR Obs” value ([1]; Table 41, 42.4 gae/ha alone) of the same compound?
Its value is 15%.

What about the “Visual Weed Control (%) - 20 DAA ECHOR Obs” value ([1]; Table 43, 10.6 gae/ha alone) of the same compound?
Its value is 10%.

And the “Visual Weed Control (%) - 20 DAA ECHOR Obs” value ([1]; Table 43, 21.2 gae/ha alone)?
The value was 30%.

What about the “Visual Weed Control (%) - 20 DAA ECHOR Obs” value ([1]; Table 43, 42.4 gae/ha alone) of the same compound?
Its value is 45%.

And the “Visual Weed Control (%) - 19 DAA LEFCH Obs” value ([2]; Table 31, 42 gae/ha alone)?
Its value is 10%.

And the “Visual Weed Control (%) - 22 DAA LEFCH Obs” value ([2]; Table 34, 10.6 gae/ha alone)?
Its value is 20%.

What about the “Visual Weed Control (%) - 22 DAA LEFCH Obs” value ([2]; Table 34, 21.2 gae/ha alone) of the same compound?
The value was 40%.

And the “Visual Weed Control (%) - 22 DAA LEFCH Obs” value ([2]; Table 34, 42.4 gae/ha alone)?
Its value is 60%.

And the “Visual Weed Control (%) - 21 DAA LEFCH Obs” value ([2]; Table 36, 17.5 gae/ha alone)?
The value was 20%.

What about the “Visual Weed Control (%) - 20 DAA LEFCH Obs” value ([2]; Table 43, 10.6 gae/ha alone) of the same compound?
Its value is 30%.

And the “Visual Weed Control (%) - 20 DAA LEFCH Obs” value ([2]; Table 43, 21.2 gae/ha alone)?
Its value is 20%.

And the “Visual Weed Control (%) - 20 DAA LEFCH Obs” value ([2]; Table 43, 42.4 gae/ha alone)?
The value was 75%.

And the “Visual Weed Control (%) - 21 DAA LEFCH Obs” value ([2]; Table 47, 17.5 gae/ha alone)?
The value was 20%.

And the “Visual Weed Control (%) - 20 DAA LEFCH Obs” value ([2]; Table 49, 10.6 gae/ha alone)?
The value was 30%.

What about the “Visual Weed Control (%) - 20 DAA LEFCH Obs” value ([2]; Table 49, 21.2 gae/ha alone) of the same compound?
Its value is 20%.

And the “Visual Weed Control (%) - 20 DAA LEFCH Obs” value ([2]; Table 49, 42.4 gae/ha alone)?
Its value is 75%.

Which “Visual Weed Control (%) - 20 DAA ECHOR Obs” value ([1]; Table 29, 4.38 gae/ha alone) does the source give for `COc1c(Cl)ccc(-c2nc(C(=O)OCc3ccccc3)c(Cl)c(N)c2F)c1F` [Compound A Benzyl Ester] here?
Its value is 10%.

And the “Visual Weed Control (%) - 20 DAA ECHOR Obs” value ([1]; Table 29, 8.75 gae/ha alone)?
The value was 20%.

And the “Visual Weed Control (%) - 20 DAA ECHOR Obs” value ([1]; Table 29, 17.5 gae/ha alone)?
The value was 30%.

What about the “Visual Weed Control (%) - 20 DAA ECHOR Obs” value ([1]; Table 29, 35 gae/ha alone) of the same compound?
Its value is 53%.

What about the “Visual Weed Control (%) - 20 DAA ECHOR Obs” value ([1]; Table 29, 70 gae/ha alone) of the same compound?
Its value is 73%.

And the “Visual Weed Control (%) - 21 DAA ECHOR Obs” value ([1]; Table 32, 8 gae/ha alone)?
Its value is 8%.

And the “Visual Weed Control (%) - 21 DAA ECHOR Obs” value ([1]; Table 32, 16 gae/ha alone)?
The value was 5%.

And the “Visual Weed Control (%) - 22 DAA ECHOR Obs” value ([1]; Table 35, 17.5 gae/ha alone)?
Its value is 30%.

And the “Visual Weed Control (%) - 21 DAA ECHOR Obs” value ([1]; Table 37, 8.75 gae/ha alone)?
The value was 25%.

What about the “Visual Weed Control (%) - 21 DAA ECHOR Obs” value ([1]; Table 37, 17.5 gae/ha alone) of the same compound?
Its value is 25%.

What about the “Visual Weed Control (%) - 21 DAA ECHOR Obs” value ([1]; Table 42, 4.38 gae/ha alone) of the same compound?
The value was 15%.

And the “Visual Weed Control (%) - 21 DAA ECHOR Obs” value ([1]; Table 42, 8.75 gae/ha alone)?
Its value is 15%.

What about the “Visual Weed Control (%) - 21 DAA ECHOR Obs” value ([1]; Table 42, 17.5 gae/ha alone) of the same compound?
The value was 20%.

And the “Visual Weed Control (%) - 20 DAA ECHOR Obs” value ([1]; Table 44, 8.75 gae/ha alone)?
The value was 20%.

And the “Visual Weed Control (%) - 20 DAA ECHOR Obs” value ([1]; Table 44, 17.5 gae/ha alone)?
The value was 30%.

And the “Visual Weed Control (%) - 21 DAA ECHOR Obs” value ([1]; Table 46, 4.38 gae/ha alone)?
Its value is 0%.

And the “Visual Weed Control (%) - 21 DAA ECHOR Obs” value ([1]; Table 46, 8.75 gae/ha alone)?
The value was 10%.

What about the “Visual Weed Control (%) - 21 DAA ECHOR Obs” value ([1]; Table 46, 17.5 gae/ha alone) of the same compound?
Its value is 60%.

What about the “Visual Weed Control (%) - 22 DAA LEFCH Obs” value ([2]; Table 35, 4.38 gae/ha alone) of the same compound?
The value was 20%.

And the “Visual Weed Control (%) - 20 DAA LEFCH Obs” value ([2]; Table 50, 4.38 gae/ha alone)?
Its value is 20%.

Which results are given for `COC(=O)c1ccccc1CS(=O)(=O)NC(=O)Nc1nc(OC)cc(OC)n1` [Bensulfuron-methyl, methyl 2-[[[[[(4,6-dimethoxy-2-pyrimidinyl)amino]carbonyl]amino]sulfonyl]methyl]benzoate, reference compound]?
Visual Weed Control (%) - 25 DAA ECHOR Obs ([1]; Table 31, 35 gai/ha alone): 80%; Visual Weed Control (%) - 19 DAA ECHOR Obs ([1]; Table 31, 70 gai/ha alone): 78%; Visual Weed Control (%) - 25 DAA ECHOR Obs ([1]; Table 31, 70 gai/ha alone): 85%; Visual Weed Control (%) - 21 DAA ECHOR Obs ([1]; Table 32, 35 gai/ha alone): 0%; Visual Weed Control (%) - 21 DAA ECHOR Obs ([1]; Table 32, 70 gai/ha alone): 15%; Visual Weed Control (%) - 19 DAA LEFCH Obs ([2]; Table 31, 70 gai/ha alone): 23%

For `COCC(=O)OC(c1ncccc1S(=O)(=O)NC(=O)Nc1nc(OC)cc(OC)n1)C(C)F` (stereo not drawn) [Flucetosulfuron, 1-[3-[[[[(4,6-dimethoxy-2-pyrimidinyl)amino]carbonyl]amino]sulfonyl]-2-pyridinyl]-2-fluoropropyl 2-methoxyacetate], which “Visual Weed Control (%) - 21 DAA ECHOR Obs” value ([1]; Table 36, 0.1 gai/ha alone) is on record?
The value was 0%.

What about the “Visual Weed Control (%) - 21 DAA ECHOR Obs” value ([1]; Table 36, 0.2 gai/ha alone) of the same compound?
Its value is 0%.

And the “Visual Weed Control (%) - 21 DAA ECHOR Obs” value ([1]; Table 37, 0.1 gai/ha alone)?
The value was 0%.

What about the “Visual Weed Control (%) - 21 DAA ECHOR Obs” value ([1]; Table 37, 0.2 gai/ha alone) of the same compound?
The value was 0%.

What about the “Visual Weed Control (%) - 21 DAA LEFCH Obs” value ([2]; Table 36, 0.1 gai/ha alone) of the same compound?
Its value is 0%.

What about the “Visual Weed Control (%) - 21 DAA LEFCH Obs” value ([2]; Table 36, 0.2 gai/ha alone) of the same compound?
The value was 0%.
